The source of these data is ChEMBL document CHEMBL1201862, “PubChem BioAssay data set” (2004).

Holding throughout (assay): NCI anticancer screen, dose series, 48 h
Test [1] has as its system NCI-H226.
The subject of test [2] is OVCAR-4.
Test [3] relates to IGROV-1.
Test [4] has as its system SNB-75.
For test [5], the system named is CAKI-1.
Test [6] has as its system OVCAR-3.
Test [7] has as its system RXF 393.
Test [8] deals with HCC 2998.
The test system of test [9] is RPMI-8226.
Test [10] deals with SNB-19.
The subject of test [11] is COLO 205.
In test [12] the test system is ACHN.
For test [13], the system named is 786-0.
Test [14] relates to SK-MEL-2.
Test [15] has as its system A498.
Test [16] deals with MOLT-4.
Test [17] has as its system A549.

The structures appear in SMILES notation.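 Following 48 hours of exposure in 96-well plates, responses at five concentrations were used to interpolate endpoints linearly. GI50 marks 50% less growth.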 The source made the active and inactive calls. No stated cut-off is given here; in the data, active = GI50 up to about 1.1 µM and inactive = higher.

Regarding `NC(=S)N/N=C1\C(=O)N(CCc2ccccc2)C(=O)C1C(=O)NCCc1ccccc1` (configuration not stated), the GI50 in test [1] is > 100 µM (inactive); in [2] it was > 100 µM (inactive); in [3] it was > 100 µM (inactive); in [4] it was 20.7 µM (inactive); in test [5], > 100 µM (inactive); in [6] it was > 100 µM (inactive). For the same compound, the GI50 in [7], in [8], in test [9], in [10], in [11] and in test [12] was > 100 µM (inactive) each time. The GI50 in [13], in [14] and in test [15] was > 100 µM (inactive) throughout.

For `CC(CCc1ccc2c(c1)c(N)c1ccc(N)cc1[n+]2[O-])CC(C)(C)C` (configuration not stated), the GI50 is 1.85 µM (inactive) in test [1]; 2.05 µM (inactive) in test [2]; 1.49 µM (inactive) in test [3]; 2.07 µM (inactive) in test [4]; 1.47 µM (inactive) in [5]; 1.73 µM (inactive) in [6]. The GI50 is 2 µM (inactive) in [7]; 1.55 µM (inactive) in [8]; 1.92 µM (inactive) in test [9]; 1.09 µM (active) in test [16]; 1.45 µM (inactive) in test [11]; 1.73 µM (inactive) in test [12]. In addition, the GI50 in test [13] was 1.5 µM (inactive); in test [14], 1.77 µM (inactive); in [17], 1.63 µM (inactive); in [15] it was 1.89 µM (inactive).

As to `CN(CC1NCCCC1O)C12CC3CC(CC(C3)C1)C2` (configuration not stated), the GI50 in test [1], in test [2], in test [3], in test [5], in test [6] and in [8] was > 100 µM (inactive) throughout. For the same compound, the GI50 in test [9], in [10], in test [16], in test [11], in test [12] and in test [13] was > 100 µM (inactive) in each case. Also, the GI50 in [17] and in [15] was > 100 µM (inactive) in each case.

Regarding `CCc1ccccc1NC(=O)CC1NC(=O)CS1` (configuration not stated), the GI50 in [1] is > 100 µM (inactive); in test [2], > 100 µM (inactive); in [3], > 100 µM (inactive); in test [4], 37.5 µM (inactive); in test [5] it was > 100 µM (inactive); in [6], > 100 µM (inactive). Besides, the GI50 in [7], in test [8], in [9], in [10], in test [16] and in [11] was > 100 µM (inactive) each time. Besides, the GI50 in test [13], in [14], in [17] and in [15] was > 100 µM (inactive) throughout.

For the compound `CCCOP1(=O)C=C(C)C(Cl)=C(C)C1` (configuration not stated), the GI50 in test [1] was 20.9 µM (inactive); in test [2], 26.9 µM (inactive); in test [3], 34.6 µM (inactive); in test [4], 22.6 µM (inactive); in test [6], 25.2 µM (inactive); in test [7], 18 µM (inactive). Further, the GI50 is 54.7 µM (inactive) in test [8]; 12 µM (inactive) in [9]; > 100 µM (inactive) in [10]; 17.6 µM (inactive) in [16]; 11.2 µM (inactive) in [11]; 21.4 µM (inactive) in test [12]. The GI50 in test [13] was 16.9 µM (inactive); in [14] it was 6.11 µM (inactive); in [17] it was 21.6 µM (inactive).

In the case of `COc1cc(Cl)c2c3c(c(C(=O)c4ccccc4)oc13)CCC2`, the GI50 in [2] was > 100 µM (inactive); in [3], > 100 µM (inactive); in test [4], > 100 µM (inactive); in [5] it was > 100 µM (inactive); in [6], > 100 µM (inactive); in test [7], 62.5 µM (inactive). In addition, the GI50 in test [8], in test [9], in [10], in test [16], in [11] and in test [12] was > 100 µM (inactive) in each case. Further, the GI50 in test [13], in [17] and in test [15] was > 100 µM (inactive) throughout.

Turning to `COc1cc2c(cc1O)C1C(O)C(O)C=C3CCN(C2)C31` (configuration not stated), the GI50 in [1] was 2.55 µM (inactive); in test [2] it was 1.38 µM (inactive); in test [3], 2.74 µM (inactive); in test [4], 2.65 µM (inactive); in [5] it was 1.9 µM (inactive); in test [6], 2.67 µM (inactive). For the same compound, the GI50 in test [7] is 1.45 µM (inactive); in test [8], 2.4 µM (inactive); in test [9], 3.58 µM (inactive); in test [10], 1.39 µM (inactive); in [16], 3.15 µM (inactive); in [11], 1.44 µM (inactive). Besides, the GI50 was 1.85 µM (inactive) in test [12], 2.39 µM (inactive) in test [13], 1.83 µM (inactive) in [14] and 2.11 µM (inactive) in [17].

For `CCOC(=O)/C(O)=C(/c1n[nH]c(=O)c2ccccc12)[N+](=O)[O-]`, the GI50 in [1], in [2], in [3], in [4], in test [6] and in test [7] was > 100 µM (inactive) throughout. The GI50 in test [8], in test [9], in [10], in [16], in test [11] and in test [12] was > 100 µM (inactive) each time. For the same compound, the GI50 in test [13], in test [14], in [17] and in test [15] was > 100 µM (inactive) in each case.

As to `C[C@]12CC[C@H](O)CC1CCC[C@@H]2O` (some centres not stated), the GI50 in test [2], in test [3], in test [4], in test [5], in test [6] and in [7] was > 100 µM (inactive) each time. Further, the GI50 in test [8], in test [9], in [10], in test [16], in test [11] and in test [13] was > 100 µM (inactive) throughout. The GI50 in test [14], in [17] and in test [15] was > 100 µM (inactive) in each case.

With `O=c1c2ccccc2c2nc3ccccc3nc2n1C1CCCCC1`, the GI50 in test [1] was > 100 µM (inactive); in [2], 32.9 µM (inactive); in test [3] it was > 100 µM (inactive); in test [4] it was 51.9 µM (inactive); in [5], > 100 µM (inactive); in [6], > 100 µM (inactive). Also, the GI50 in [7], in test [8], in test [9], in test [10], in [16] and in [11] was > 100 µM (inactive) throughout. The GI50 in test [12], in test [13], in test [14] and in test [17] was > 100 µM (inactive) in each case.

On to `CC(=O)O[C@H]1C(=O)[C@@]2(C)C([C@H](OC(=O)c3ccccc3)[C@]3(O)C[C@H](OC(=O)[C@H](O)[C@H](NC(=O)c4ccccc4)c4ccc(Cl)cc4)C(C)=C1C3(C)C)C1(OC(C)=O)CO[C@@H]1C[C@@H]2O` (some centres not stated), for which the GI50 was 0.00229 µM (active) in test [1]; 0.889 µM (active) in [2]; 0.000136 µM (active) in test [3]; < 0.0001 µM (active) in test [4]; 0.151 µM (active) in test [5]; 0.00222 µM (active) in test [6]. Further, the GI50 in [7] was 0.0149 µM (active); in [8] it was 0.000813 µM (active); in test [9], 0.000157 µM (active); in test [10], 0.0304 µM (active); in test [16] it was 0.01 µM (active); in test [11], 0.00188 µM (active). The GI50 was 0.261 µM (active) in test [12]; 0.00711 µM (active) in test [13]; 0.00594 µM (active) in [14]; 0.000678 µM (active) in [17]; 0.0256 µM (active) in test [15].

As for `c1ccc(C(c2ccccc2)c2ccccn2)cc1`, the GI50 is > 100 µM (inactive) in test [1]; > 100 µM (inactive) in [2]; > 100 µM (inactive) in test [3]; 52.5 µM (inactive) in test [4]; > 100 µM (inactive) in test [5]; > 100 µM (inactive) in [6]. For the same compound, the GI50 in test [8] is > 100 µM (inactive); in test [9] it was 66.1 µM (inactive); in test [10], > 100 µM (inactive); in test [11], > 100 µM (inactive); in test [12] it was > 100 µM (inactive); in test [13] it was > 100 µM (inactive). In addition, the GI50 in test [14], in test [17] and in [15] was > 100 µM (inactive) throughout.

For the compound `c1ccc2c(c1)[nH]c1c[nH]c3c4cccnc4nc-3c12`, the GI50 in test [1] was 25.2 µM (inactive); in [2], 18.2 µM (inactive); in [3], 18.1 µM (inactive); in [4] it was 18.2 µM (inactive); in [5], 14.5 µM (inactive); in test [6] it was 17.1 µM (inactive). Besides, the GI50 in test [7] is 18.7 µM (inactive); in test [8], 19 µM (inactive); in [9], 25.3 µM (inactive); in [10] it was 18.3 µM (inactive); in [16], 24.4 µM (inactive); in test [11], 15 µM (inactive). The GI50 in [12] is 11.3 µM (inactive); in [13], 17.1 µM (inactive); in [17], 20 µM (inactive); in [15], 33.3 µM (inactive).
